Reference: US20080311103A1, “Anti-Inflammatory Peptides and Methods of Use Thereof” (YEDA RESEARCH AND DEVELOPMENT CO. LTD. at THE WEIZMANN …, priority 2004, published 2008)

Columns and labels:
BALB/C mice = test: TNBS-induced colitis model of inflammatory bowel disease (IBD); format: in vivo, mouse; settings: 50 μg/mouse SC daily; day 7 after TNBS
Method: BALB/C mice, which were anesthetized for 5-10 min, received by intrarectal administration, 30 μl of a solution of 2,4,6-trinitrobenzene sulfonic acid (TNBS; 100 mg/kg) dissolved in 0.9% NaCl and mixed with an equal volume of ethanol (50% ethanol). Animals were killed 7 days after TNBS administration.
Wound fluid peptides were administered once daily by subcutaneous (SC) administration starting 1 day before the induction of colitis and every day for the next 7 days as follows:
Treatment with the wound fluid peptides was evaluated at day 7 by determination of macroscopic inflammation scores. The colon of each mouse was examined under a dissecting microscope to evaluate the macroscopic lesions according to the Wallace criteria. The Wallace score lists macroscopic colon lesions on a scale from 0 to 10 based on features reflecting inflammation, such as hyperemia, thickening of the bowel, and extent of ulceration (Wallace, J. L., et al. 1989, Gastroenterology, 96:29).

Jurkat and THP-1 cells = test: TNFα secretion by PMA/PHA induced Jurkat and THP-1 cells; format: cell-based, human; settings: peptide 1 μg/ml; 48 hours; ELISA
Method: Jurkat cells human T cell lymphoma line) (2×10^6 cells/ml) cultured in RPMI-1640 supplemented with 10% FCS were activated with PMA (50 ng/ml) and phytohaemagglutinin PHA (4 µg/ml) for 6 hours at 37° C. (7.5% CO2-humidified atmosphere). Thereafter, the cells were washed, plated on 24-well plates (10^6 cells/well in 0.5 ml), and incubated (1 hour at 37° C., 7.5% CO2-humidified atmosphere) with the indicated concentrations of peptides 1-5. Following the incubation, THP-1 cells (human monocytic cell line derived from a patient with acute monocytic leukaemia; 1.25×10^5 cells/0.5 ml/well) were added to the wells. After 48 hours, the supernatants were collected and their TNF[…] content was determined by ELISA using anti TNF[…] mAb (Pharmingen; San Diego, Calif.) according to the manufacturer's instructions.

[1] = system: anti-CD3 antibody induced TNFα secretion from T cells; test: TNFα secretion by anti-CD3 activated T cells; format: cell-based, human; settings: peptide 100 ng/ml; 24 hours; ELISA; FIG. 7A
Method: Human T cells were purified and maintained in culture (RPMI containing 10% FCS, 1% Pyruvate, 1% glutamine, 1% antibiotics, 7.5% CO2, humidified atmosphere) for 15 hr before they were transferred to RPMI and activated (2 hr, 37° C.) with the indicated concentrations of the peptides. The cells were then plated (1.5×10^6 cells/0.5 ml/well) in 24 wells plates (non-tissue culture grade) precoated with anti-CD3 mAb in order to stimulate the cells to secrete cytokines. After 24 hours, the supernatants were collected and their cytokine content (TNFα and IFNγ) was determined by ELISA using anti-IFNγ and anti TNFα mAb (Pharmingen; San Diego, Calif.) according to the manufacturer's instructions.

[2] = system: lymph node cells of oxazalone-sensitized mice transferred to syngeneic recipient mice; test: Adoptive transfer DTH assay; format: in vivo, mouse; settings: lymph node cells incubated 20 hours with peptide (10 rig/ml), injected i.v. to recipient mice; ear swelling after 24 hours
Method: Female inbred BALB/c mice (The Jackson Laboratory, Bar Harbor, Me.) were sensitized on the shaved abdominal skin with 2% oxazalone (100 μl) dissolved in acetone/olive oil [4:1 (vol/vol)]. Two donor mice were sensitized for one recipient mouse. On day 5, lymph nodes were removed and single-cell suspensions of lymph node cells were prepared. Lymph node cells were incubated (20 hours) with either peptide No. 3 or peptide No. 5 (10 rig/ml) in RPMI 1640 containing 10% FCS. After the incubation, the cells were washed, resuspended with PBS and injected intravenously (40 million cells per mouse) to syngeneic recipient mice. The mice were immediately challenged with 0.5% oxazalone in acetone/olive oil (10 μl given topically to each side of the ear) to elicit DTH reactions. The increment of ear swelling was measured after 24 hours.

T cells = test: Chemotaxis assay: T cell migration toward SDF-1α; format: cell-based; settings: concentration range 10-1000 ng/ml; SDF-1α 250 ng/ml; 3 hr
Method: The migration of ^51-[Cr]-labeled T cells was examined in […] Transwell chemotaxis apparatus (6.5-mm diameter; Corning, N.Y.), consisting of two compartments separated by polycarbonate filters (5 μm pore size) pretreated (1 hr, 37° C.) with FN (25 μg/ml). ^51-[Cr]-labeled T cells (2×10^5 in 100 μl of RPMI containing 0.1% BSA and antibiotics), which were pre-incubated with the indicated concentrations of peptides (30 min, 37° C.), were added to the upper chambers. The bottom chambers contained 0.6 ml of the same media, with or without human Stromal cell-Derived Factor-1α (SDF-1α; 250 ng/ml). After incubation at 37° C. for 3 hr (7.5% CO2-humidified atmosphere), cells that had transmigrated into the lower wells were collected, centrifuged, and lysed (in 100 μl of distilled water containing 1 M NaOH and 0.1% Triton X-100), and the radioactivity in the resulting supernatants was determined with a γ-counter. The percentage (±SD) of cell migration was calculated as the radioactivity counts in the lysates of the lower chambers (representative of the migrating cells) divided by the total counts (representative of 2×10^5 cells).

WDNLEKETEGL [peptide No. 3, residues 96-106 of Apo A-I; identified in wound fluids, then synthesized]
Wallace score (macroscopic inflammation score, scale 0 to 10) (BALB/C mice): 4.0±1.3
inhibition of TNFα secretion by Jurkat and THP-1 cells compared to PMA/PHA alone (Jurkat and THP-1 cells): 50%
inhibition of anti-CD3 antibody induced TNFα secretion from T cells [1]: 50%
inhibition of adoptive transfer DTH response [2]: 80%
inhibition of T cell transmigration toward SDF-1α (T cells): did not show a significant inhibition
